Test results reported in US7723066B1, “Processes for in vivo production of astaxanthin and phaffia rhodozyma yeast of enhanced astaxanthin content” (Igene Biotechnology, Inc., priority 1988, dated 2010).
Like-named read-outs stand apart in the source and are kept apart here.

Key:
Assay type in all cases: cell-based, Phaffia rhodozyma
P. rhodozyma [1] = test: Inhibitors incorporated into yeast malt extract medium: killing, growth and colony colour; conditions: nicotine 1 mM, imidazole 4 mM, 2-methylimidazole 1 mM, morpholine 10 mM
P. rhodozyma [2] = test: as above; conditions: for influence on pigmentation of P. rhodozyma: YM plates or liquid growth media; for killing of P. rhodozyma: incorporated into yeast malt extract medium agar
Excerpt: The inventors also tried treating P. rhodozyma with several inhibitors of electron transport including thenoyltrifluoroacetone (TTFA), antimycin A, and sodium cyanide.

P. rhodozyma [3] = test system: P. rhodozyma
Excerpt: One of the selected progeny (IGI-887J0; see FIG. 2 and accompanying text) was characterized physiologically.
Sensitivities of the mutants to various respiratory inhibitors including antimycin A, theonyltrifluoroacetine, sodium azide, hydrogen peroxide and sodium cyanide were examined. These inhibitors affect different regions of the respiratory chain.

P. rhodozyma [4] = test: Morphological selection on agent-containing medium, colonies assayed for pigment
Excerpt: More specifically, the inventors have discovered that by subjecting a naturally occurring or mutated strain of P. rhodozyma to growth in the presence of a metabolic pathway inhibitor, particularly a main respiratory pathway inhibitor, in the presence of an influence such as an agent or environmental condition which triggers a secondary respiratory pathway, or morphological selection using a selecting agent, and particularly an antibiotic, a cytochrome B inhibitor, or a terpenoid synthetic pathway inhibitor as a selecting agent, a directed and specific selection of highly pigmented P. rhodazyma takes place. For example, plating of the pink yeast, P. rhodozyma, to agar containing an antibiotic, a cytochrome B inhibitor, or a terpenoid synthetic pathway inhibitor gave rise to colonies of unusual morphology characterized by a nonpigmented lower smooth surface that developed highly pigmented vertical papillae after 1 to 2 months.
The sequence of mutations and selections with which the highest astaxanthin yielding strains to date have been produced is shown in FIG. 2. With reference to FIG. 2, the naturally occurring parent 67-385, obtained from the American Type Culture Collection ATCC No. 24230, was assayed as containing 200-600 μg/g dry weight of yeast in 6 day growth. 67-385 was subjected to antimycin selection, and higher pigmented progeny, referred to as 10′-887J0 were obtained. The first mutant papillus dissected from the basal colony contained approx. 700 μg total carotenoid/g yeast compared to the parental strain which had 300 to 400 μg/g. 10′-887J0 was assayed to have an astaxanthin content of 960 μg/g dry weight of yeast in 6 day growth. 10′-887J0 was replated to YM agar containing 50 μM antimycin and second generation antimycin colonies were selected. One of these produced 1200 μg/g and another produced 1450 μg/g. […]
After harvest from 30 ml growth medium, the cells are washed in water and resuspended in 30 ml of water. The optical density is measured to determine growth. […]

Cc1ncc[nH]1 [2-methylimidazole]
color of the colonies (P. rhodozyma [1]): did visually change the color of the colonies
growth (P. rhodozyma [1]): did not impair growth

O=C(CC(=O)C(F)(F)F)c1cccs1 [TTFA, thenoyltrifluoroacetone]
influence on pigmentation of P. rhodozyma (P. rhodozyma [2]): do not seem to significantly influence pigmentation
killing of naturally occurring P. rhodozyma by inhibitors of electron transport (P. rhodozyma [2]; naturally occurring P. rhodozyma): substantially killed by low concentrations
sensitivity of the antimycin mutants compared with parental strain (P. rhodozyma [3]; antimycin-isolated mutants): quite sensitive
sensitivity of mutant compared with natural isolate (P. rhodozyma [3]; strain IGI-887J0): increased sensitivities

[N-]=[N+]=[N-].[Na+] [azide, sodium azide]
killing of naturally occurring P. rhodozyma by inhibitors of electron transport (P. rhodozyma [2]): relatively insensitive
sensitivity of mutant compared with natural isolate (P. rhodozyma [3]): did not differ
sensitivity of the antimycin mutants compared with parental strain (P. rhodozyma [3]): did not differ in sensitivity

OO [hydrogen peroxide]
sensitivity of mutant compared with natural isolate (P. rhodozyma [3]): more sensitive to killing
sensitivity of the antimycin mutants compared with parental strain (P. rhodozyma [3]): quite sensitive

c1c[nH]cn1 [imidazole]
color of the colonies (P. rhodozyma [2]): did visually change the color of the colonies
growth (P. rhodozyma [2]): did not impair growth

CC(=O)N1CCN(c2ccc(OCC3COC(Cn4ccnc4)(c4ccc(Cl)cc4Cl)O3)cc2)CC1 (centres unmarked) [ketoconazole]
killing of P. rhodozyma (P. rhodozyma [2]): significant killing

C[C@@]1(O)CCOC(=O)C1 [mevalonic acid lactone]
pigment of resistant mutant (P. rhodozyma [4]; 25 mM mevalonic acid lactone resistant mutant of NTG-mutagenized ATCC 24202, control 275 μg/g): 540 µg/g

Clc1ccc(COC(Cn2ccnc2)c2ccc(Cl)cc2Cl)c(Cl)c1 (centres unmarked) [miconazole]
killing of P. rhodozyma (P. rhodozyma [2]): significant killing

C1COCCN1 [morpholine]
color of the colonies (P. rhodozyma [2]): did visually change the color of the colonies
growth (P. rhodozyma [2]): did not impair growth

CN1CCCC1c1cccnc1 (centres unmarked) [nicotine]
color of the colonies (P. rhodozyma [1]): did visually change the color of the colonies
growth (P. rhodozyma [1]): did not impair growth

C[C@@H]1[C@H](O)[C@@H](C)/C=C/C=C/CC/C=C/C=C/C=C/C=C/C(O[C@H]2O[C@H](C)[C@@H](O)[C@H](N)[C@@H]2O)CC2O[C@](O)(CC(O)C(O)CCC(O)CC(O)CC(O)CC(=O)O[C@H]1C)CC(O)C2C(=O)O (some centres unmarked) [nystatin]
pigment of highest mutant (P. rhodozyma [4]; mutant of ATCC 24202 from 3 and 5 μg/ml nystatin, control 270 μg/g): 400 µg/g

C=C(C)[C@H]1Cc2c(ccc3c2O[C@@H]2COc4cc(OC)c(OC)cc4[C@@H]2C3=O)O1 [rotenone]
influence on pigmentation of P. rhodozyma (P. rhodozyma [2]): do not seem to significantly influence pigmentation

tunicamycin
pigment of resistant mutant (P. rhodozyma [4]; 8 μg/ml tunicamycin resistant mutant of ATCC 24202, control 270 μg/g): 610 µg/g
